Laboratory results published in patent publication US5622948A, “Pyrrole pyridazine and pyridazinone anti-inflammatory agents” (Syntex (U.S.A.) Inc., priority 1994, dated 1997).
Values joined by “and” are separate entries in the source; they are usually repeats but may differ in a detail not shown here. Identical values can stand only once. Like-named read-outs stand apart in the source and are kept apart here.

Assays:
[1] = biological target: T1, COX II (Homo sapiens, UniProt P35354); experiment: PGE2 production in human foreskin fibroblasts stimulated with IL-1 and PMA; format: cell-based; set-up: A 1.8 Kb DNA fragment containing the coding region of human COX II was generated by PCR; made in house; host or cells: Sf9 insect cells, baculovirus; conditions: read-out: COX II IC50, inhibition of PGE2 production
T1 sequence (P35354 18-604): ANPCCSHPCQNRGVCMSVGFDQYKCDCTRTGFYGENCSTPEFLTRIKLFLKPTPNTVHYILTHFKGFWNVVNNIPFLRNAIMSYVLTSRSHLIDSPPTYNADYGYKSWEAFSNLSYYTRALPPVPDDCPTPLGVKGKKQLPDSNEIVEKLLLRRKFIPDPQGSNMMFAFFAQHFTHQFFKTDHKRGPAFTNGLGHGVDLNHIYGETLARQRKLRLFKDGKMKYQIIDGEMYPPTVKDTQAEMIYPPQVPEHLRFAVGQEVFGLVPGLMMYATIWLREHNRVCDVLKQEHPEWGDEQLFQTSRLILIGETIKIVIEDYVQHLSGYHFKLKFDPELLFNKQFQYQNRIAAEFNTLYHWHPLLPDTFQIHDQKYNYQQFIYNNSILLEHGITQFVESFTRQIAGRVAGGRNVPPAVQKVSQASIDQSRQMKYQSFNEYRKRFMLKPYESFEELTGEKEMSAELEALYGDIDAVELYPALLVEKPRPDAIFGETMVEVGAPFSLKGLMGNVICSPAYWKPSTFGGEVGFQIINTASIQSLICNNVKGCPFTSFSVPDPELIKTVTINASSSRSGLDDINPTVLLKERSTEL
Protocol: A summary of activities of Compound (16) against COX I and COX II in cell-free enzyme preparations and whole cells is presented in Table 1. The following abbreviations are used: AA is arachidonic acid, IL-1 is interleukin 1, PMA is phorbol myristate acetate, A23187 is a calcium ionophore (Sigma), BSA is bovine serum albumin and LPS is a lipopolysaccharide (Sigma).
Human foreskin fibroblasts
30 min incubation with Compound (16)
16 hr admulation with IL-1 and PMA
washing, transfer to fresh media
EIA determination of PGE2
16 hr stimulation with IL-1 and PMA
RIA determination of PGE2

[2] = biological target: T2, COX I (Homo sapiens, UniProt P23219); experiment: radiometric assay, COX I inhibition (human recombinant, baculovirus expressed, partially purified); format: biochemical; set-up: A 2 Kb fragment containing the coding region of COX I; made in house; host or cells: Sf9 insect cells, baculovirus (cDNA from Oxford Biomedical Research); conditions: 10 min incubation with compound; 45 sec incubation with 20 μM AA; separation of radioactive products; read-out: COX I IC50
T2 sequence (P23219 24-599): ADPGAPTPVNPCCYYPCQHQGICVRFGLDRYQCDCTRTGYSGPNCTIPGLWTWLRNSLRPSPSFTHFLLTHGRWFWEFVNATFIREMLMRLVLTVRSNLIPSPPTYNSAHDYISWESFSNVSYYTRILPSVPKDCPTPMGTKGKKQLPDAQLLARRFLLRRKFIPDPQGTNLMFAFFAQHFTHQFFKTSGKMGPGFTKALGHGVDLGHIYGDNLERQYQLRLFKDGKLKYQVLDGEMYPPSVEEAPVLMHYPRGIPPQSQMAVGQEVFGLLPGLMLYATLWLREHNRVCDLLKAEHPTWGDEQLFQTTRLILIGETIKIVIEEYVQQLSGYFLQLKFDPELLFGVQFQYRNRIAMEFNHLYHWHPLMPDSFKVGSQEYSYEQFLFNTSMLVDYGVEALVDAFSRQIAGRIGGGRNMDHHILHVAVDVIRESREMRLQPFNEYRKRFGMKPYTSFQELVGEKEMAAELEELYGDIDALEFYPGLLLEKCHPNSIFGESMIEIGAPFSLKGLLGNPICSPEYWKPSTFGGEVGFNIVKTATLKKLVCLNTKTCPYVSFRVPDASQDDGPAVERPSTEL
Outline: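 Partially purified baculovirus-expressed human enzyme preincubated with compound, 2 mM phenol (5 min) then 1 μM hematin (5 min). Reaction in Tris-HCl pH 7.9 with 20 μM 1-[14C]arachidonate for 45 s at room temperature, acid-stopped; oxygenated products isolated on Sep-Pak and counted by scintillation.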

[3] = system: phenylquinone-induced writhing; experiment: Phenylquinone-induced Mouse Writhing Assay; format: in vivo; conditions: 20 or 60 minutes prior to phenylquinone
Protocol: Analgetic activity is determined by the Phenylquinone-induced Mouse Writhing Assay, Hendershot, et al., J. Pharmacol. Exp. Ther., 125:237-240 (1959). This assay is one of several acute assays which have been used to assess the analgesic activity of NSAIDs. At the appropriate time after test material administration, phenylquinone is injected intraperitoneally to mice, inducing a series of characteristic "writhing" responses, which are counted between 10 and 20 minutes after phenylquinone injection.
In this assay, Compound (16), suspended in SSV, was tested over the dose range of 1-100 mg/kg administered 20 or 60 minutes prior to phenylquinone challenge.

[4] = system: carrageenan-induced paw edema; experiment: Carrageenan-induced paw edema in the rat; format: in vivo; conditions: oral
Protocol: Carrageenan-induced paw edema in the rat has been used as the primary in vivo screen for anti-inflammatory activity of most NSAIDs.
Over a series of assays, in which Compound (16), suspended in SSV, was administered orally to rats 1 hour prior to injection of carrageenan, Compound (16) inhibited carrageenan-induced paw edema (ED30 =1.1±1.0 mg/kg).

[5] = system: PGE2 levels in the air-pouch exudate; experiment: PGE2 in exudate of carrageenan-induced inflammation (air-pouch model) in rats; format: in vivo, rat; conditions: Rattus norvegicus; 0.1-30 mg/kg, relative to vehicle; read-out: IC50, inhibition of PGE2 levels in the exudate
[6] = two week range finding toxicity study in cynomolgus monkeys; format: in vivo, cynomolgus monkey; conditions: 10, 30, 100 and 300 mg/kg daily, two weeks
Protocol: A two week range finding study in cynomolgus monkeys was carried out at daily doses of 10, 30, 100 and 300 mg/kg of Compound (16).

[7] = biological target: T2, COX I; experiment: TxB2 production in human whole blood activated with ionophore (COX I); conditions: COX I IC50, inhibition of TxB2 production

## Cc1cc(Cc2ccc(=O)[nH]n2)n(C)c1C(=O)c1ccc(Cl)cc1 [Compound 16, 6-[1,4-dimethyl-5-(4chloro-benzoyl)-1H-pyrrol-2-ylmethyl]-2H-pyridazin-3-one]
[1]; 30 min incubation, 10 min activation, 5 μM A23187, RIA determination of PGE2
  IC50: 0.12 µM and 0.17 µM and 0.14 µM
[1]; 30 min incubation; a) 10 min activation with 5 μM A23187, EIA determination of PGE2
  IC50: ≤ 0.1 µM
[1]; 30 min incubation; b) 10 min activation with 20 μM AA + FA-free BSA, EIA determination of PGE2
  IC50: ~2.7 µM
[2]
  IC50: > 1000 µM
[3]; 100 mg/kg, in SSV
  inhibition of phenylquinone-induced writhing: 100%
[3]; Mus musculus, 1-100 mg/kg
  ED50: ~10 mg/kg
[4]; Rattus norvegicus, in SSV, 1 hour prior to carrageenan, series of assays, read-out: ED30, inhibition of carrageenan-induced paw edema
  ED30: 1.1 ± 1 mg/kg
[4]; maximum amount achievable with NSAIDs
  inhibition of paw edema at the appropriate dose: ~ 60%
[5]
  ED50: 0.7 to 2 mg/kg
[6]
  clinical signs, clinical chemistry, gross pathology or histopathology: No abnormalities were observed
[7]; 15 min incubation with compound, 30 min with A23187 (ionophore), RIA determination of TxB2
  IC50: 5.6 µM
[7]; 30 min incubation, 15 min activation, A23187, EIA determination of TxB2
  IC50: 3 µM
